Assay results from patent publication US20110232180A1, “Method of applying calcium magnesium acetate to affect growth of unwanted broadleaf weeds in lawn grasses” (priority 2010, published 2011).

How the values were obtained:
violet weeds = assay: calcium magnesium acetate grains or triclopyr liquid applied to violet weeds in lawn grasses; assay type: in vivo
Text: (§1) These are not mandatory steps, it simply helps reduce fall off of the grains on the leaves. Alternatively, without the binder and size reduction, the grains could rest by simple placement on the leaves of the weed.

[1] = system: environment, ducks and fish; conditions: cited from earlier work
broadleaf weeds = conditions: granular substance applied to the leaves of the weeds
Text: A novel unknown use of calcium magnesium acetate is as an effective eliminator of certain broadleaf weeds which invade lawn grasses. When applying the granular substance to the leaves of the weeds, it can produce desired results, very quickly, much faster then many previously known toxic compositions. This method can work in as little as two days.
as §1

testosterone in men = conditions: by-product of triclopyr; cited from earlier work

Compound | treatments needed to affect violet weeds (violet weeds; liquid form applied once a month to lawns with violet weeds) | toxicity to the environment [1] | effect on lawn grasses around or near the violet weeds (common lawn grasses; applied by the method (grains isolated on the target weed, limited amount)) | effect on lawn grasses (common lawn grasses; extreme over applications of the granular product) | time in which the grains eliminate / control violet weeds (violet weeds; grains applied to leaves of violet weeds in lawn) | time in which the method works on broadleaf weeds (broadleaf weeds) | effect on testosterone in men (testosterone in men)
O=C(O)COc1nc(Cl)c(Cl)cc1Cl [triclopyr, reference compound] | several monthly treatments just to diminish part of the plant | slightly toxic to the environment, ducks and fish |  |  |  |  | 
calcium magnesium acetate |  | non-toxic to the environment | little or no adverse affect | did affect common lawn grasses | two | two | 
tricloropyridine |  |  |  |  |  |  | lower testosterone in men
